Values joined by “and” are separate entries in the source; they are usually repeats but may differ in a detail not shown here. Identical values can stand only once.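 Test compounds were applied to cells in 96-well plates for 48 hours at 5 doses. Here, GI50 denotes the concentration required for 50% inhibition of growth. TGI: total growth inhibition.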
How the values were obtained:
Assay in all cases: NCI anticancer screen, dose series, 48 h
786-0 renal = test system: 786-0 renal
A498 renal = test system: A498 renal
A549 NSCLC = test system: A549 NSCLC
ACHN renal = test system: ACHN renal
BT-549 breast = test system: BT-549 breast
CAKI-1 renal = test system: CAKI-1 renal
CCRF-CEM leukemia = test system: CCRF-CEM leukemia
COLO 205 colon = test system: COLO 205 colon
DU-145 prostate = test system: DU-145 prostate
EKVX NSCLC = test system: EKVX NSCLC
HCC-2998 colon = test system: HCC-2998 colon
HCT-116 colon = test system: HCT-116 colon
HCT-15 colon = test system: HCT-15 colon
HL-60(TB) leukemia = test system: HL-60(TB) leukemia
HOP-62 NSCLC = test system: HOP-62 NSCLC
HOP-92 NSCLC = test system: HOP-92 NSCLC
HS 578T breast = test system: HS 578T breast
HT29 colon = test system: HT29 colon
IGROV1 ovarian = test system: IGROV1 ovarian
K-562 leukemia = test system: K-562 leukemia
KM12 colon = test system: KM12 colon
LOX IMVI melanoma = test system: LOX IMVI melanoma
M14 melanoma = test system: M14 melanoma
MALME-3M melanoma = test system: MALME-3M melanoma
MCF7 breast = test system: MCF7 breast
MDA-MB-231 breast = test system: MDA-MB-231 breast
MDA-MB-435 = test system: MDA-MB-435
MOLT-4 leukemia = test system: MOLT-4 leukemia
NCI-H226 lung = test system: NCI-H226 lung
NCI-H23 lung = test system: NCI-H23 lung
NCI-H460 lung = test system: NCI-H460 lung
NCI-H522 lung = test system: NCI-H522 lung
NCI/ADR-RES ovarian = test system: NCI/ADR-RES ovarian
OVCAR-3 ovarian = test system: OVCAR-3 ovarian
OVCAR-4 ovarian = test system: OVCAR-4 ovarian
OVCAR-5 ovarian = test system: OVCAR-5 ovarian
OVCAR-8 ovarian = test system: OVCAR-8 ovarian
PC-3 prostate = test system: PC-3 prostate
RPMI-8226 leukemia = test system: RPMI-8226 leukemia
RXF 393 renal = test system: RXF 393 renal
SF-268 CNS = test system: SF-268 CNS
SF-295 CNS = test system: SF-295 CNS
SF-539 CNS = test system: SF-539 CNS
SK-MEL-2 melanoma = test system: SK-MEL-2 melanoma
SK-MEL-28 melanoma = test system: SK-MEL-28 melanoma
SK-MEL-5 melanoma = test system: SK-MEL-5 melanoma
SK-OV-3 ovarian = test system: SK-OV-3 ovarian
SN12C renal = test system: SN12C renal
SNB-19 CNS = test system: SNB-19 CNS
SNB-75 CNS = test system: SNB-75 CNS
SR leukemia = test system: SR leukemia
SW-620 colon = test system: SW-620 colon
T-47D breast = test system: T-47D breast
TK-10 renal = test system: TK-10 renal
U251 CNS = test system: U251 CNS
UACC-257 melanoma = test system: UACC-257 melanoma
UACC-62 melanoma = test system: UACC-62 melanoma
UO-31 renal = test system: UO-31 renal

COc1cc(O)c2c(c1)/C=C/C[C@H](O)[C@H](O)C(=O)/C=C\C[C@H](C)OC2=O
GI50 (786-0 renal): 3.88 µM and 3.81 µM
TGI (786-0 renal): 8.49 µM and 15.8 µM
GI50 (A498 renal): 4.93 µM and 4.48 µM
TGI (A498 renal): 32.3 µM and 67.7 µM
GI50 (A549 NSCLC): 4.77 µM and 34.8 µM
TGI (A549 NSCLC): 33.5 µM and > 100 µM
GI50 (ACHN renal): 0.877 µM and 1.74 µM
TGI (ACHN renal): 5.61 µM and 14.4 µM
TGI (BT-549 breast): 3.28 µM and 13.1 µM
GI50 (CAKI-1 renal): 0.514 µM and 0.403 µM
TGI (CAKI-1 renal): 6.31 µM and 12.7 µM
GI50 (CCRF-CEM leukemia): 1.01 µM and 2.42 µM
TGI (CCRF-CEM leukemia): 11.4 µM and 9.13 µM
GI50 (COLO 205 colon): 0.0614 µM and 0.194 µM
TGI (COLO 205 colon): 3.98 µM and 12 µM
GI50 (DU-145 prostate): 2.09 µM and 5.28 µM
TGI (DU-145 prostate): 13.8 µM and 18.6 µM
GI50 (EKVX NSCLC): 3.01 µM and 15.3 µM
TGI (EKVX NSCLC): 10.7 µM and 52.2 µM
GI50 (HCC-2998 colon): 2.46 µM and 9.46 µM
TGI (HCC-2998 colon): 7.09 µM and 23.3 µM
GI50 (HCT-116 colon): 0.515 µM and 0.601 µM
TGI (HCT-116 colon): 3.66 µM and 10 µM
GI50 (HCT-15 colon): 0.618 µM and 2.17 µM
TGI (HCT-15 colon): 4.64 µM and 12.4 µM
GI50 (HL-60(TB) leukemia): 0.218 µM and 0.205 µM
TGI (HL-60(TB) leukemia): 4.27 µM and 2.55 µM
GI50 (HOP-62 NSCLC): 4.14 µM and 14.5 µM
TGI (HOP-62 NSCLC): 10.9 µM and 40.2 µM
GI50 (HOP-92 NSCLC): 0.165 µM and 0.223 µM
TGI (HOP-92 NSCLC): 3.1 µM and 0.973 µM
GI50 (HS 578T breast): 3.91 µM and 2.72 µM
TGI (HS 578T breast): 28.5 µM and 13.1 µM
GI50 (HT29 colon): 0.0462 µM and 0.0821 µM
TGI (HT29 colon): 4.35 µM and 10.3 µM
GI50 (IGROV1 ovarian): 3.74 µM and 2.64 µM
TGI (IGROV1 ovarian): 16.9 µM and 20.9 µM
GI50 (K-562 leukemia): 1.11 µM and 2.15 µM
TGI (K-562 leukemia): 27 µM and 12.3 µM
GI50 (KM12 colon): 1.54 µM and 5.53 µM
TGI (KM12 colon): 6.87 µM and 24.8 µM
GI50 (LOX IMVI melanoma): 0.477 µM and 1.04 µM
TGI (LOX IMVI melanoma): 3.59 µM and 4.44 µM
GI50 (M14 melanoma): 0.022 µM and 0.05 µM
TGI (M14 melanoma): 1.42 µM and 10.3 µM
GI50 (MALME-3M melanoma): 0.00579 µM and 0.0157 µM
TGI (MALME-3M melanoma): 0.0926 µM and 0.0572 µM
GI50 (MCF7 breast): 0.891 µM and 2.89 µM
TGI (MCF7 breast): 4.13 µM and 10.9 µM
TGI (MDA-MB-231 breast): 7.26 µM and 27 µM
GI50 (MDA-MB-435): 0.157 µM and 0.171 µM
TGI (MDA-MB-435): 6.56 µM and 2.55 µM
GI50 (MOLT-4 leukemia): 0.763 µM and 2.25 µM
TGI (MOLT-4 leukemia): 3.75 µM and 8 µM
GI50 (NCI-H226 lung): 5.45 µM
TGI (NCI-H226 lung): 33.5 µM
GI50 (NCI-H23 lung): 0.559 µM
TGI (NCI-H23 lung): 4.56 µM
GI50 (NCI-H460 lung): 2.29 µM and 3.34 µM
TGI (NCI-H460 lung): 33.5 µM and 17.2 µM
GI50 (NCI-H522 lung): 0.357 µM and 2.05 µM
TGI (NCI-H522 lung): 4.01 µM and 12.7 µM
GI50 (NCI/ADR-RES ovarian): 1.92 µM and 4.11 µM
TGI (NCI/ADR-RES ovarian): 9.55 µM and 31.5 µM
GI50 (OVCAR-3 ovarian): 0.991 µM and 2.88 µM
TGI (OVCAR-3 ovarian): 7.27 µM and 14.2 µM
GI50 (OVCAR-4 ovarian): 3.55 µM and 2.52 µM
TGI (OVCAR-4 ovarian): 33.5 µM and 23.3 µM
GI50 (OVCAR-5 ovarian): 3.61 µM and 4.27 µM
TGI (OVCAR-5 ovarian): 10.3 µM and 22.6 µM
GI50 (OVCAR-8 ovarian): 1.44 µM and 2.87 µM
TGI (OVCAR-8 ovarian): 7.22 µM and 14.6 µM
GI50 (PC-3 prostate): 4.62 µM and 9.91 µM
TGI (PC-3 prostate): 15 µM and 28.7 µM
GI50 (RPMI-8226 leukemia): 0.815 µM and 1.59 µM
TGI (RPMI-8226 leukemia): 4.66 µM and 7.41 µM
GI50 (RXF 393 renal): 1.07 µM and 2.01 µM
TGI (RXF 393 renal): 5.7 µM and 7.21 µM
GI50 (SF-268 CNS): 4.7 µM and 12.8 µM
TGI (SF-268 CNS): 33.5 µM and 55.7 µM
GI50 (SF-295 CNS): 4.32 µM and 18.6 µM
TGI (SF-295 CNS): 11.1 µM and 45 µM
GI50 (SF-539 CNS): 1.92 µM and 3.12 µM
TGI (SF-539 CNS): 6.89 µM and 15.3 µM
GI50 (SK-MEL-2 melanoma): 2.61 µM and 2.81 µM
TGI (SK-MEL-2 melanoma): 9.12 µM and 13.7 µM
GI50 (SK-MEL-28 melanoma): 0.0148 µM and 0.0458 µM
TGI (SK-MEL-28 melanoma): 3.52 µM and 1.04 µM
GI50 (SK-MEL-5 melanoma): 0.331 µM and 2.69 µM
TGI (SK-MEL-5 melanoma): 4.53 µM and 14.4 µM
GI50 (SK-OV-3 ovarian): 5.73 µM and 17.9 µM
TGI (SK-OV-3 ovarian): 21.6 µM and 80.3 µM
GI50 (SN12C renal): 1.35 µM and 4.12 µM
TGI (SN12C renal): 9.17 µM and 23.7 µM
GI50 (SNB-19 CNS): 5.71 µM and 14.9 µM
TGI (SNB-19 CNS): 23.5 µM and 73.3 µM
GI50 (SNB-75 CNS): 5.72 µM and 3.57 µM
TGI (SNB-75 CNS): 17 µM and 31 µM
GI50 (SR leukemia): 0.358 µM and 0.671 µM
TGI (SR leukemia): 5.94 µM and 6.49 µM
GI50 (SW-620 colon): 0.224 µM and 0.469 µM
TGI (SW-620 colon): 8.33 µM and 10.3 µM
GI50 (T-47D breast): 1.18 µM and 2.66 µM
TGI (T-47D breast): 11.5 µM and 21.3 µM
GI50 (TK-10 renal): 1.86 µM and 5.29 µM
TGI (TK-10 renal): 7.31 µM and 31.1 µM
GI50 (U251 CNS): 1.8 µM and 11.2 µM
TGI (U251 CNS): 6.99 µM and 23.5 µM
GI50 (UACC-257 melanoma): 0.0252 µM and 0.139 µM
TGI (UACC-257 melanoma): 1.74 µM and 1.27 µM
GI50 (UACC-62 melanoma): 0.0173 µM and 0.113 µM
TGI (UACC-62 melanoma): 2.89 µM and 9.52 µM
GI50 (UO-31 renal): 0.237 µM and 0.326 µM
TGI (UO-31 renal): 5.42 µM and 11.9 µM

Reference: PubChem BioAssay (NCI)
